Measurements published in patent publication US9695219B2, “Polypeptide having antibacterial activity and angiogenesis-inducing activity and wound-healing drug containing said polypeptide” (priority 2009, dated 2017).
Where a SMILES comes first, the peptide text is derived from it. [ ]: non-standard residue; d: D form.

Tests used:
[1] = test system: Pseudomonas aeruginosa (clinical strain 6); assay: MIC measurement, broth microdilution; assay type: cell-based; details: 37° C. for 20 hours; tested twice, first/second value where not matched
Procedure: (§1) (CLSI), but, in this Example, its measurement was carried out by a broth microdilution method in accordance with “M100-S17/M7-A7” (Performance Standards for Antimicrobial Susceptibility Testing; Seventeenth Informational Supplement, Vol. 27 No. 1) published by CLSI on January, 2007. That is, sensitivity test of agents was carried out using a microtiter plate or test tubes.
(§2) Each peptide was prepared to an optional concentration, and the solutions were serially diluted from the concentration. The polypeptide at each concentration stage was added to a microplate or test tubes, and the bacterial suspension was added thereto.

[2] = test system: Pseudomonas aeruginosa (clinical strain 9); assay: MIC measurement, broth microdilution; assay type: cell-based; details: 37° C. for 20 hours; tested twice, first/second value where not matched
Procedure: as §1, §2

[3] = test system: Pseudomonas aeruginosa (clinical strain 12); assay: MIC measurement, broth microdilution; assay type: cell-based; details: 37° C. for 20 hours; tested twice, first/second value where not matched
Procedure: as §1, §2

[4] = test system: human vascular endothelial cells and fibroblast cells; assay: Lumen formation test, areas of formed lumina (Angiogenesis Kit KZ-1000); assay type: cell-based; details: 0.5, 2.5 and 10 μg/mL, Day 11 of culture
Procedure: Then, in order to examine the angiogenesis activity of these, lumen formation by the polypeptides was evaluated using an angiogenesis kit available from KURABO […] LTD. (Product No.: KZ-1000). Vascular endothelial growth factor (VEGF) as a positive control, and polypeptide-free, unstimulated group as a negative control, were used.
Using a special medium for angiogenesis which was attached to the kit, each polypeptide was prepared such that the concentration thereof was respectively 0.5, 2.5 and 10 μg/mL. To a 24-well plate in which cells were plated (the cells were those obtained by co-culturing human vascular endothelial cells and fibroblast cells at an optimum concentration) which was attached to the kit, the special medium for angiogenesis containing each polypeptide was added, and the cells were cultured at 37° C. under 5% CO2. The medium was replaced with a medium containing the same additive on Day 4, Day 7 and Day 9 of culture. […]
Each of the obtained images was quantified using an angiogenesis quantification software. The areas of formed lumina observed in each visual field were measured on the basis of the scale of an angiogenesis quantification software available from KURABO […] […] (angiogenesis quantification software Ver 1.0), and evaluated on the basis of the ratio of the areas of polypeptide-containing groups relative to the area of the negative control group.

[5] = test system: Normal human dermal fibroblasts (NHDFs); assay type: cell-based
Procedure: Next, the effect of these polypeptides on the growth of human umbilical vein endothelial cells (HUVECs) was studied. A cell growth activity of the polypeptides was examined using Cell Counting Kit (WST-1) available from Dojindo Laboratories. As a negative control (Control), polypeptide-free group was used. Cells (human umbilical vein endothelial cells: HUVECs) were plated in a 96-well plate (0.5×10^4 cells/well/100 μL, serum 1%). About 3 hours after plating the cells, the polypeptides (1, 3, 10, 30 or 100 μg/ml) and FGF (100 ng/ml) as a positive control were individually added thereto in an amount of 100 μL. To the unstimulated group, only a medium was added in an amount of 100 μL. The plate was left to stand in a CO2 incubator for about 48 hours. Thereafter, WST-1 reagent was added to each well in an amount of 20 μL, and then the plate was left to stand in a CO2 incubator for about 2 hours. Absorbances at wavelengths of 450 nm and 620 nm were measured using Wallac 1420 ARVOsx (Program: WST-1). A value of O.D.450-O.D.620 was calculated for each measurement. […] The cell growth activity was evaluated on the basis of the ratio of Net O.D.450 of polypeptide-containing groups relative to Net O.D.450 of the unstimulated group.
Then, the effect on the growth of normal human dermal fibroblasts (NHDFs) was also studied by the same method as described above.

[6] = Stability in human serum (HPLC); assay type: in vitro ADME; details: 37° C.
Procedure: The stability of the polypeptides in serum was evaluated. In human serum (purchased from KAC Co., Ltd.), or in rat serum obtained by collecting blood from a rat, then leaving the collected blood to stand at room temperature followed by centrifugation, each of the peptides was dissolved so as to attain a final concentration of 500 μg/mL, and the obtained solutions were left to stand at 37° C. After leaving to stand for 3 min or 10 min, these solutions were subjected to HPLC chromatogram analysis to detect peaks of the decomposition products, and calculate the ratio of the concentration of the peptides which remained in the solutions relative to the starting concentration. In addition, the half-lives of the peptides in serum were also calculated.

rat cut-wound model = assay: Effect to heal cut wounds, wound closing tension; assay type: in vivo; details: 500 ng, 5 and 50 μg dropwise once a day, measured on Day 6
Procedure: Next, using rat cut-wound model, the effect of the polypeptides, SR-07 and SR-08, to heal cut wounds in vivo was evaluated. As described in Tetsuaki Yamaura et al. (Oyo Yakuri (Pharmacometrics) 22, 565-579 (1981)), the rat cut-wound model was produced and the wound closing tension was measured.
That is, a cut wound of 30 to 36 mm was made on the back of Crl:CD (SD) rats (male, 7-week old, obtained from Charles River Laboratories Japan, Inc.) using a safety razor, and sutured at 3 points equally spaced. The day when this surgical treatment was applied was regarded as […] (Day 0). Onto the suture site, 50 μL of each of the peptides which were test substances and were respectively prepared to the concentration of 10, 100 and 1000 μg/mL was added dropwise (the added amounts were 500 ng and 5 and 50 μg, respectively). Additions of 50 μL physiological saline were regarded as negative controls (Saline). Each peptide was added dropwise once a day till the day when the measurement of the wound closing tension was carried out. The sutures were removed on Day 3, and the wound closing tension was measured on Day 6.

Structure (SMILES): CC[C@H](C)[C@H](NC(=O)[C@H](CC(C)C)NC(=O)[C@H](CCCCN)NC(=O)[C@@H](N)CC(C)C)C(=O)N[C@@H](Cc1ccccc1)C(=O)N[C@@H](CC(C)C)C(=O)N[C@@H](Cc1c[nH]cn1)C(=O)N[C@@H](CCCNC(=N)N)C(=O)N[C@@H](CC(C)C)C(=O)N[C@@H](CCCCN)C(=O)N[C@@H](CCCNC(=N)N)C(=O)N[C@@H](CCSC)C(=O)N[C@@H](CCCNC(=N)N)C(=O)N[C@@H](CCCCN)C(=O)N[C@@H](CCCNC(=N)N)C(=O)N[C@@H](CC(C)C)C(=O)N[C@H](CCCCN)C(=O)N[C@@H](CCCNC(=N)N)C(=O)N[C@@H](CCCCN)C(N)=O [SR-08] (H-LKLIFLHRLKRMRKRL[dK]RK-NH2; N-terminus assumed)
- MIC, Pseudomonas aeruginosa (clinical strain 6) [1]: 16/32
- MIC, Pseudomonas aeruginosa (clinical strain 9) [2]: 16/64
- MIC, Pseudomonas aeruginosa (clinical strain 12) [3]: 16/32
- Ability to form lumen (areas of formed lumina relative to negative control, FIG. 1) [4]: showed an ability to form lumen at the tested concentrations
- Concentration above which the polypeptide tended to exhibit toxicity, NHDFs (FIG. 4) [5]: > 30000 ng/mL
- Ratio of peptide remaining relative to the starting concentration, human serum, 0 min ([6]; 500 μg/mL, 0 min): 100
- remaining at 0.05 h, 500 μg/mL ([6]; human, human serum, 3 min, read-out: Ratio of peptide remaining relative to the starting concentration, human serum, 3 min): 95%
- remaining at 10 min, 500 μg/mL ([6]; human, human serum, 10 min, read-out: Ratio of peptide remaining relative to the starting concentration, human serum, 10 min): 65.8%
- half-life ([6]; human, serum, 500 μg/mL): 16 min
- Wound closing tension (FIGS. 7 and 8) (rat cut-wound model): the wound closing tension tended to be increased
